{
  "source": "patent US20110207796A1",
  "about": "“ALPHA-SYNUCLEIN KINASE” (Elan Pharma International Limited, priority 2008, published 2011)",
  "key": {"[1]": {"system": "endogenous kinase (synuclein phosphorylation)", "assay": "HEK-293 cells overexpressing synuclein with empty vector, inhibition of synuclein phosphorylation", "assay_type": "cell-based, human", "conditions": "Homo sapiens", "description": "All vectors had the sequence coding for the protein of interest. Transfection was accomplished using Lipofectamine 2000 (Invitrogen, Carlsbad, Calif.) with 0.08 μg vector. Cells were washed and harvested 48 hours post-transfection. A Micro BCA (Pierce) total protein assay and total synuclein and phospho-synuclein ELISAs were performed on each plate of treated cells."}, "[2]": {"system": "synuclein phosphorylation (serine-129)", "assay": "inhibition of synuclein phosphorylation across the cellular paradigms (primary neuronal cultures and 293 cells)", "assay_type": "cell-based, mouse, rat and human", "conditions": "Homo sapiens, HEK293; most EC50 values, all cellular paradigms; read-out: EC50 inhibition of synuclein phosphorylation, cellular paradigms"}, "[3]": {"system": "panel of 260 kinases", "assay": "screen against a panel of 260 kinases at 10 uM", "assay_type": "biochemical"}, "[4]": {"system": "synuclein phosphorylation by endogenous kinase", "assay": "kinase inhibitor treatment of mouse cortical cultures (MCC), total and phospho-synuclein ELISA", "assay_type": "cell-based", "description": "Mouse cortical cultures from fetal (i) Swiss-Webster, (ii) C56BL/6 WT and (iii) C56BL/6 E46K-Synuclein Trangenic mice were prepared and maintained in B27/DMEM/1% Penicillin-Streptomycin at 37° C./10% CO2 for three to fourteen days and then treated with kinase inhibitors.\nCultures were exposed to inhibitors for two hours in B27/DMEM/1% Penicillin-Streptomycin. Cells were immediately washed in 100 μL of PBS plus Mg^2+ and Ca^2+, and harvested in ice-cold CEB minus EGTA plus protease inhibitors, frozen on dry ice and stored at −80° C. until processed. A Micro BCA (Pierce) total protein assay, and total synuclein and phospho-synuclein ELISAs were performed on each plate of treated cells using standard methods."}, "[5]": {"system": "brain p-synuclein", "assay": "synuclein phosphorylation in brains of FVB mice treated with kainic acid (immunohistochemistry, ELISA)", "assay_type": "in vivo, mouse", "conditions": "immunohistochemistry and ELISA", "source_text": "This example describes up regulation of phosphorylated α-synuclein (p-synuclein) in wildtype mice after kainic acid administration. Several articles have reported that excitotoxicity can result in an upregulation of polo-like kinases. […] Thus the kainic acid model provides better understanding the involvement of the PLK2 p-synuclein pathway in neurodegeneration and may be used in screening assays of the invention."}},
  "note": "Like-named read-outs stand apart in the source and are kept apart here.",
  "data": [
    {"smiles": "CC[C@@H]1C(=O)N(C)c2cnc(Nc3ccc(C(=O)NC4CCN(C)CC4)cc3OC)nc2N1C1CCCC1", "note": "[BI 2536, 4-[[(7r)-8-cyclopentyl-7-ethyl-5,6,7,8-tetrahydro-5-methyl-6-oxo-2-pteridinyl]amino]-3-methoxy-n-(1-methyl-4-piperidinyl)-benzamide]", "values": [
      {"measurement": "EC50", "setting": "[1]; HEK293, read-out: EC50, Endogenous Kinase (293)", "value": 54, "unit": "nM"},
      {"measurement": "EC50", "setting": "[1]; HEK293, read-out: EC50 Based on the Percent Inhibition of Synuclein Phosphorylation, Synuclein + Vector", "value": 99, "unit": "nM"},
      {"measurement": "EC50", "setting": "[1]; HEK293, read-out: EC50 synuclein phosphorylation, endogenous kinase", "value": 99, "unit": "nM"},
      {"measurement": "EC50", "setting": "[2]", "value": "≤ 100", "unit": "nM"},
      {"measurement": "inhibition in panel of 260 kinases", "setting": "[3]", "value": "very potent in inhibiting PLK2 and PLK3"},
      {"measurement": "EC50", "setting": "[4]; Mus musculus, read-out: EC50, E46K-Syn TG MCC", "value": "< 100", "unit": "nM"},
      {"measurement": "EC50", "setting": "[4]; Swiss-Webster mouse cortical cultures, read-out: EC50, Swiss-Webster MCC", "value": 92, "unit": "nM"},
      {"measurement": "EC50", "setting": "[4]; WT mouse cortical cultures, read-out: EC50, WT-MCC", "value": "< 100", "unit": "nM"}
    ]},
    {"smiles": "C=C(C)[C@H]1CN[C@H](C(=O)O)[C@H]1CC(=O)O", "note": "[kainic acid]", "values": [
      {"measurement": "p-synuclein levels in brain", "setting": "[5]", "value": "Increased levels"}
    ]}
  ]
}
